Drawing on paper PMC7814170 (Molecular Biotechnology, 2021), this text covers inhibition and EC50 for six molecules.

pEC50: −log10 of the molar value.

The target of the first assay is SARS-CoV-2 main protease 3CLpro (Severe acute respiratory syndrome coronavirus 2, UniProt P0DTD1). Description: cell-based. The note with it: read-out: inhibition to viral protease (reduction in GFP fluorescent activity).
Usually inhibition stands for the change of the read-out against control, counted positive when it falls. Regarding `CC(C)(C)NC(=O)N[C@H](C(=O)N1C[C@H]2[C@@H]([C@H]1C(=O)NC(CC1CCC1)C(=O)C(N)=O)C2(C)C)C(C)(C)C` (stereo partly shown) [Boceprevir, boceprevir, reference compound], the inhibition at 40 µM was found to be 80%. For the molecule `O=C1c2ccccc2NC(c2cc(Br)ccc2O)N1N=Cc1cc(Br)ccc1O` (stereo not shown) [QZ1, 3-(5-Bromo-2-hydroxybenzylideneamino)-2-(5-bromo-2-hydroxyphenyl)-2,3-dihydroquinazoline-4 (1H)-one], the inhibition at 40 µM is 20 to 50%. For `O=C1c2ccccc2NC(c2cc(Cl)ccc2O)N1N=Cc1cc(Cl)ccc1O` (stereo not shown) [QZ2, 3-[(5-Chloro-2-hydroxy-benzylidene)-amino]-2-(5-chloro-2-hydroxy-phenyl)-2,3-dihydroquinazoline-4(1H)-one], the inhibition at 40 µM lay in the range of 20 to 50%. Regarding `COc1cc(Br)cc(C=NN2C(=O)c3ccccc3NC2c2cc(Br)cc(OC)c2O)c1O` (stereo not shown) [QZ3, 3-(5-Bromo-2-hydroxy-3-methoxybenzylideneamino)-2-(5-bromo-2-hydroxy-3-methoxyphenyl)-2,3-dihydroquinazoline-4(1H)-one], the inhibition at 40 µM fell in the range of 20 to 50%. Same read-out and setting: the value for `COc1ccc(O)c(C=NN2C(=O)c3ccccc3NC2c2cc(OC)ccc2O)c1` (stereo not shown) [QZ4, 3-(5-Methoxy-2-hydroxybenzylideneamino)-2(5-methoxy-2-hydroxyphenyl)-2,3-dihydroquinazoline-4(1H)-one] was roughly 80%; that for `O=C1c2ccccc2NC(c2cc([N+](=O)[O-])ccc2O)N1N=Cc1cc([N+](=O)[O-])ccc1O` (stereo not shown) [QZ5, 3-(5-Nitro-2-hydroxybenzylideneamino)-2(5-nitro-2-hydroxyphenyl)-2,3-dihydroquinazoline-4(1H)-one] was 20 to 50%.

The subject of a further assay is SARS-CoV-2 main protease.
Assay: not given
The following applies: read-out: EC50 measured by FRET-based enzymatic assay; cited from earlier work.
In general, pEC50 refers to the negative decadic logarithm of the EC50, by convention in mol/L. `CC(C)(C)NC(=O)N[C@H](C(=O)N1C[C@H]2[C@@H]([C@H]1C(=O)NC(CC1CCC1)C(=O)C(N)=O)C2(C)C)C(C)(C)C` (stereo partly shown) [Boceprevir, boceprevir, reference compound]: the pEC50 is […].
